pIC50: −log10 of the molar value. Like-named read-outs stand apart in the source and are kept apart here.
Experiments:
[1] = biological target: T1, Cdk2/cyclin E (Homo sapiens, UniProt P24941); experiment: Biochemical kinase assay Cdk2/cyclin E; conditions: Table 6
T1 construct: made in house; host or cells: Sf9 insect cells
Excerpt: (§1) Enzymes: Cdc2/cyclin B was obtained from commercial sources. Cdk2/his-cyclin Eshort was expressed in Sf9 cells. Cdk2/cyclin A, cdk4/cyclin D1, and cdk6/cyclin D2 were expressed in Sf9 cells. Protein kinase A (catalytic subunit, from bovine heart) and protein kinase C (mixed isozymes from rat brain) were obtained from commercial sources.
(§2) Substrates: Histone H1 was from commercial sources. GST-Rb is glutathione-S-trans-ferase fused to the N-terminal of residues 379-928 of the Rb protein.
(§3) Cdk2/cyclin E, Cdk2/cyclin A, Cdk4/cyclin D1, and Cdk6/cyclin D2 activity was determined using a glutathione-sepharose capture assay. The enzymes were expressed in Sf9 insect cells as heterodimers, and the substrate (GST-Rb) was glutathione-S-transferase fused to residues 379 to 928 of Rb retinoblastoma protein, expressed in E. coli. The assay solution contained 50 mM Tris.HCl, 10 mM MgCl2, 1 mM dithiothreitol, 50 μM adenosine triphosphate, 2 μCi [γ-^33P]adenosine triphosphate, 10% dimethylsulfoxide (from compounds), pH 7.5, 40 μg GST-Rb, and enzyme in a 100 μL volume. Compounds were added at various concentrations between 1 nM and 10 μM. The reaction was allowed to proceed for 15 min at 30° C. and was stopped by the addition of 70 μL of stop solution (237 mM disodium ethylene-diamine tetraacetate, 105 mM adenosine triphosphate, pH 8.0). The GST-Rb was captured by binding to glutathione-sepharose bead (Amersham) for 110 min, and the suspension was filtered through a glass fiber filter. After washing the retained beads five time with phosphate-buffered saline containing 0.3% (w/v) Tween-20, the amount of ^33P incorporated was determined by scintillation counting after adding 100 μL scintillant. Relative activity was determined by dividing the amount of radioactivity incorporated in the presence of compound by the amount of radioactivity incorporated in a control experiment containing DMSO alone but no compound. The background radioactivity, determined in an experiment containing 50 mM disodium ethylenediamine tetraacetate in place of compound, was subtracted from all results before calculations.

[2] = biological target: T2, Cdc2/cyclin B (Homo sapiens, UniProt P06493); experiment: Biochemical kinase assay Cdc2/cyclin B; conditions: Table 6
T2 construct: purchased
Excerpt: as §1, §2
Assays: Cdc2/cyclinB activity was determined by measuring incorporation of radio-activity from adenosine [γ-^32P]triphosphate into Histone H1 using a TCA precipitation assay. Cdc2/cyclin B kinase and Histone H1 were obtained from commercial sources. The final assay solution contained 50 mM Tris.HCl, 10 mM MgCl2, 1 mM dithiothreitol, 50 μM adenosine triphosphate, 2 μCi ^32P, 10% dimethylsulfoxide (from compounds), pH 7.5, 20 μg Histone H1, 6 U enzyme in a 50 μL volume. Compounds were added at various concentrations between 1 nM and 10 μM. The reaction was started with the addition of enzyme, allowed to proceed for 20 min at 30° C., and stopped by the addition of 20 μL of stop solution (237 mM disodium ethylenediamine tetraacetate, 105 mM adenosine triphosphate, pH 8.0). The protein was precipitated by the addition of 35 μL 70% (w/v) trichloroacetic acid, and the precipitate was captured on a 96-well glass fiber filter plate (Millipore, Inc.), which had been wet with 25% (w/v) trichloroacetic acid. The filter was washed ten times with 25% (w/v) trichloroacetic acid, and the amount of incorporated ^32P was determined by scintillation counting after adding 100 μL scintillant (Microscint 20, Packard Instruments). Relative activity was determined by dividing the amount of radioactivity incorporated in the presence of compound by the amount of radioactivity incorporated in a control experiment containing DMSO alone but no compound. The background radioactivity, determined in an experiment containing 50 mM EDTA in place of compound, was subtracted from all results before calculations.

[3] = system: HCT-116 cells; experiment: Calcein AM viability assay, HCT-116; assay type: cell-based; conditions: Homo sapiens
Protocol: The potency of Cdk inhibitors, as measured by loss of cellular viability, was determined with the Calcein AM assay (Molecular Probes). Calcein AM is a substrate of intracellular esterases, which is cleaved only in viable cells to generate a fluorescent product that can be quantified with a fluorescent plate reader. The fluorescent signal is proportional to the number of viable cells, and thus loss of signal in response to the exposure of cells to Cdk inhibitors correlates with a loss of viability. This assay can distinguish cell cycle arrest, in which cells may still by viable, from loss of viability and is thus well suited for the evaluation of Cdk inhibitors. A compound that is a potent cytotoxic, may cause significant loss of cell viability in such assay.
Cellular IC50's were determined in the human colorectal carcinoma cell line, HCT-116, and the normal human fibroblast, IMR90. Protein adjusted IC50's were also determined in HCT-116.
HCT-116 or IMR90 cells were recovered from sub-confluent plates by trypsinization and 1,000 or 4,000 cells, respectively, were plated in 24-well dishes and incubated overnight at 37° C., 5% CO2. HCT-116 cells were cultured in RPMI-1640, 10% FCS, and IMR90 cells were cultured in Minimum Essential Medium-alpha, 10% FCS. After overnight incubation to allow adherence, the media was aspirated from each well and replaced with media containing a test compound at a concentration from 0 to 250 nM, spanning a total of 7 doses. The plates were returned to the incubator and cultured for an additional 72 hours (3 days). […] After 72-hours incubation with the test compound, the cells were washed twice with 1×PBS, taking special care to remove all residual buffer.
A 5 μM Calcein AM solution was prepared by dissolving a […] aliquot of Calcein (Molecular Probes catalog # C3100) in 50 μl DMSO. After the Calcein had completely dissolved (10 minutes at room temperature), it was diluted into 10 ml PBS. Calcein/PBS (0.5 ml) was added to each well. The plates were incubated for 75 minutes at 37° C. (protected from light) and the fluorescent signal was read on a fluorescent plate reader (excitation 485/20 and emission 530/25).

[4] = biological target: T3, Cdk4/cyclin D1 (Homo sapiens, UniProt P11802); experiment: Biochemical kinase assay Cdk4/cyclin D1; conditions: Table 6
T3 construct: made in house; host or cells: Sf9 insect cells
Excerpt: as §1, §2, §3

[5] = HCT-116, non-protein adjusted, Table 6, read-out: HCT-116 viability IC50

T3 sequence (P11802 whole entry, species assumed): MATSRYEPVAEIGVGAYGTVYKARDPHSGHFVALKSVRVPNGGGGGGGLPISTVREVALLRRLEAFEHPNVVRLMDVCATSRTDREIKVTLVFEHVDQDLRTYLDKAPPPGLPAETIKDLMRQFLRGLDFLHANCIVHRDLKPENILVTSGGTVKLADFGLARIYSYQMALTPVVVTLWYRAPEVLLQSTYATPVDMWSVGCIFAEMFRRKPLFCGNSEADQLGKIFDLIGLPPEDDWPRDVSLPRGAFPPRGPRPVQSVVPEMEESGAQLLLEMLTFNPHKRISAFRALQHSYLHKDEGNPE
T3 sequence (P24385 whole entry partner, species assumed): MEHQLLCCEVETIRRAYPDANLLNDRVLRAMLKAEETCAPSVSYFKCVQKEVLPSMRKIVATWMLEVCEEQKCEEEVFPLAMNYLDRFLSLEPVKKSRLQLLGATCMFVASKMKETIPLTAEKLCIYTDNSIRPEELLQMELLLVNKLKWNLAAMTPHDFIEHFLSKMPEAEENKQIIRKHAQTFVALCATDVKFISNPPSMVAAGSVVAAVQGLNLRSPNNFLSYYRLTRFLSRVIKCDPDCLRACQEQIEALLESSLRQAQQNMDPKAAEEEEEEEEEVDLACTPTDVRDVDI
T2 sequence (P06493 whole entry, species assumed): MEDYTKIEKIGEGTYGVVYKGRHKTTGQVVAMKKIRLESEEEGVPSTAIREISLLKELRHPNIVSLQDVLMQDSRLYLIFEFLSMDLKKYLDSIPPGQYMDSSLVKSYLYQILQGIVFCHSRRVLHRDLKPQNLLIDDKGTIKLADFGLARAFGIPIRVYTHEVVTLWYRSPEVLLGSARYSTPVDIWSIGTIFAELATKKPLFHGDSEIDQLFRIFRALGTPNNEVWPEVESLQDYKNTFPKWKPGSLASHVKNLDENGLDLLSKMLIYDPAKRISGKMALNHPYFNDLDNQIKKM
T2 sequence (P14635 whole entry partner, species assumed): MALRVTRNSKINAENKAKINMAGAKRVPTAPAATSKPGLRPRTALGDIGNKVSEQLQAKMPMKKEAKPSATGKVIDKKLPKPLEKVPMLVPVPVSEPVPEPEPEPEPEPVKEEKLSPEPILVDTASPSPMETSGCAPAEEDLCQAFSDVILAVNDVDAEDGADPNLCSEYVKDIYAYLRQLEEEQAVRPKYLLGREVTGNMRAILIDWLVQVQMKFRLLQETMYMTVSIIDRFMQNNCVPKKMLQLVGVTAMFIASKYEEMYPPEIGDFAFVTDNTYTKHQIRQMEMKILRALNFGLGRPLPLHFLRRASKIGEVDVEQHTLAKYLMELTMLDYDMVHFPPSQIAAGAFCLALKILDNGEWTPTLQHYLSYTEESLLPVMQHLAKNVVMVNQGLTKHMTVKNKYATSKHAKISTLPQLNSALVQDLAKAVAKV

Row | pIC50 [1] | pIC50 [2] | pIC50 [3, 5] | pIC50 [4] | SMILES | pIC50 ([3]; HCT-116, read-out: HCT-116 viability IC50)
1 | > 7.00 | > 6.00 | > 7.00 | > 6.00 | CC(C)c1nn(-c2c(Cl)cccc2Cl)c2nc(Cc3ccc(C(=O)NOCCN4CCOCC4)cc3)[nH]c(=O)c12 [Compound A52] | 
2 | > 7.00 | > 7.00 | > 7.00 | > 5.00 | CC(C)c1nn(-c2c(Cl)cccc2Cl)c2nc(Cc3ccc(OCCOP(=O)(O)O)cc3)[nH]c(=O)c12 [Compound A62] | 
3 | > 8.00 | > 8.00 | > 7.00 | > 6.00 | CC(C)c1nn(-c2c(Cl)cc(S(N)(=O)=O)cc2Cl)c2nc(Cc3ccc(OCCN4CCOCC4)cc3)[nH]c(=O)c12 [Compound A54] | 
4 | > 7.00 | > 6.00 | > 7.00 | > 5.00 | CC(C)c1nn(-c2c(Cl)cccc2Cl)c2nc(Cc3ccc(O)c(CN4CCOCC4)c3)[nH]c(=O)c12 [Compound A5] | 
5 | > 7.00 | > 7.00 |  | > 7.00 | Cc1cc(-c2[nH]nc3c2C(=O)c2c(NC(=O)NN4CCN(C)CC4)cccc2-3)ccc1OCCN1CCN(C(C)C)CC1 [Compound A18] | 
6 | > 8.00 | > 7.00 | > 7.00 | > 6.00 | CC(C)c1nn(-c2c(Cl)cc(Cl)cc2Cl)c2nc(Cc3ccc(OCCN4CCN(C(C)C)CC4)cc3)[nH]c(=O)c12 [Compound A1] | 
7 | > 7.00 | > 7.00 |  | > 7.00 | CN1CCN(CCOc2ccc(-c3n[nH]c4c3C(=O)c3c(NC(=O)NN5CCN(C)CC5)cccc3-4)c(F)c2)CC1 [Compound A13] | 
8 | > 7.00 | > 8.00 |  | > 6.00 | O=C(Nc1cccc2c1C(=O)c1c-2n[nH]c1-c1ccc(OCC(=O)N2CCCC2)cc1)NN1CCOCC1 [Compound A46] | 
9 | > 7.00 | > 7.00 |  | > 7.00 | CN1CCN(NC(=O)Nc2cccc3c2C(=O)c2c(-c4ccc(OCCN5CCCC5)c(F)c4)n[nH]c2-3)CC1 [Compound A14] | 
10 | > 7.00 | > 6.00 |  | > 7.00 | CN(C)C(=O)CN1CCN(NC(=O)Nc2cccc3c2C(=O)c2c-3n[nH]c2-c2ccc(OCCN3CCCC3)cc2)CC1 [Compound A41] | 
11 | > 7.00 | > 8.00 |  | > 7.00 | CCOC(=O)COc1ccc(-c2[nH]nc3c2C(=O)c2c(NC(=O)NN4CCOCC4)cccc2-3)cc1 [Compound A65] | 
12 | > 7.00 | > 8.00 |  | > 7.00 | CN1CCN(NC(=O)Nc2cccc3c2C(=O)c2c-3n[nH]c2-c2ccc(O)cc2)CC1 [Compound A15] | 
13 | > 7.00 | > 8.00 |  | > 7.00 | CN1CCN(NC(=O)Nc2cccc3c2C(=O)c2c-3n[nH]c2-c2ccc(OCCn3cccn3)cc2)CC1 [Compound A17] | 
14 | > 8.00 | > 7.00 |  | > 6.00 | Cc1cc(OCCCN2CCN(C(C)C)CC2)ccc1-c1[nH]nc2c1C(=O)c1c(NC(=O)NN3CCOCC3)cccc1-2 [Compound A21] | 
15 | > 7.00 | > 6.00 | > 7.00 |  | CC(C)c1nn(-c2c(Cl)cc(Cl)cc2Cl)c2nc(Cc3ccc(NS(=O)(=O)CCCN4CCCCC4)cc3)[nH]c(=O)c12 [Compound A48] | 
16 | > 7.00 | > 7.00 |  | > 7.00 | CCOC(=O)CN1CCN(NC(=O)Nc2cccc3c2C(=O)c2c-3n[nH]c2-c2ccc(OCCN3CCCC3)cc2)CC1 [Compound A26] | 
17 | > 7.00 | > 7.00 |  | > 7.00 | CN1CCN(NC(=O)Nc2cccc3c2C(=O)c2c(-c4ccc(OCCN5CCCC5)cc4F)n[nH]c2-3)CC1 [Compound A12] | 
18 | > 8.00 | > 7.00 |  | > 7.00 | CC(C)N1CCN(CCOc2ccc(-c3n[nH]c4c3C(=O)c3c(NC(=O)NN5CCOCC5)cccc3-4)cc2F)CC1 [Compound A22] | 
19 | > 7.00 | > 7.00 |  | > 7.00 | CC(C)OC(=O)CN1CCN(NC(=O)Nc2cccc3c2C(=O)c2c-3n[nH]c2-c2ccc(OCCN3CCCC3)cc2)CC1 [Compound A40] | 
20 | > 7.00 | > 8.00 |  | > 7.00 | Cc1cc(OCCN2CCCN(C)CC2)ccc1-c1[nH]nc2c1C(=O)c1c(NC(=O)NN3CCN(C)CC3)cccc1-2 [Compound A9] | 
21 | > 7.00 | > 8.00 |  | > 7.00 | Cc1noc(COc2ccc(-c3[nH]nc4c3C(=O)c3c(NC(=O)NN5CCOCC5)cccc3-4)cc2)n1 [Compound A35] | 
22 | > 7.00 | > 7.00 |  | > 7.00 | COc1cc(-c2[nH]nc3c2C(=O)c2c(NC(=O)NN4CCOCC4)cccc2-3)ccc1OCCN1CCCC1 [Compound A31] | 
23 | > 7.00 | > 7.00 |  | > 7.00 | Cc1cc(OCCN2CCCCC2)ccc1-c1[nH]nc2c1C(=O)c1c(NC(=O)NN3CCN(C)CC3)cccc1-2 [Compound A8] | 
24 | > 7.00 | > 6.00 | > 7.00 |  | CC(C)c1nn(-c2c(Cl)cccc2Cl)c2nc(Cc3ccc(CN4CCN(C(C)C)CC4)c(O)c3)[nH]c(=O)c12 [Compound A50] | 
25 | > 7.00 | > 7.00 |  | > 6.00 | O=C(Nc1cccc2c1C(=O)c1c(-c3ccc(OCCN4CCOCC4)cc3Cl)n[nH]c1-2)NN1CCOCC1 [Compound A28] | 
26 | > 7.00 | > 7.00 |  | > 6.00 | Cc1cc(OCCN2CCN(C(C)C)CC2)ccc1-c1[nH]nc2c1C(=O)c1c(NC(=O)NN3CCN(C)CC3)cccc1-2 [Compound A19] | 
27 | > 7.00 | > 7.00 |  | > 7.00 | Cc1cc(OCCN2CCOCC2)ccc1-c1[nH]nc2c1C(=O)c1c(NC(=O)NN3CCN(C)CC3)cccc1-2 [Compound A7] | 

Row | SMILES | pIC50 [1] | pIC50 [2] | pIC50 [3, 5] | pIC50 [4] | pIC50 ([3]; HCT-116, read-out: HCT-116 viability IC50)
28 | CC(C)N1CCN(C(=O)COc2ccc(-c3[nH]nc4c3C(=O)c3c(NC(=O)NN5CCOCC5)cccc3-4)cc2)CC1 [Compound A76] | > 7.00 | > 7.00 | > 7.00 | > 7.00 | 
29 | CC(C)c1nn(-c2c(Cl)cccc2Cl)c2nc(Cc3ccc(OCCOC(=O)[C@@H](N)C(C)C)cc3)[nH]c(=O)c12 [Compound A60] | > 7.00 |  |  |  | > 7.00

Reference: patent US7605175B2, “Inhibitors of cyclin-dependent kinases, compositions and uses related thereto” (GPC Biotech AG, priority 2001, dated 2009)
